Patent US20200399238A1, “THERAPEUTIC AURONES” (MIDDLE TENNESSEE STATE UNIVERSITY, priority 2016, published 2020)

System: p65 (NF-κB)
Assay: Indirect immunofluorescence for NF-κB nuclear translocation, THP-1
Assay type: cell-based, human
Conditions: dose of 10 μM; THP-1, LPS 30 min
From the text: Bay 11-7082 is a compound that inhibits LPS-induced activation of IKKα/β, thereby suppressing downstream IκBα phosphorylation/degradation and p65 nuclear translocation and was used as a positive control (Catalan, Fernandez-Castillejo et al. 2012). Treated cells were fixed, permeabilized, blocked, and stained with p65 (NF-κB) primary antibody, Dylight 488 conjugated secondary antibody, and Hoechst 33342 dye, sequentially. The Hoechst and DyLight fluorophores detect changes in nuclear morphology (blue fluorescence) and NF-κB distribution (green fluorescence), respectively. Nuclear Translocation Bioapplication software on the Arrayscan VTI reader was used for image acquisition and data analysis (Thermo Fisher Scientific, Waltham, Mass., USA). For each well, at least 400 cells were automatically acquired and analyzed. The translocation index was calculated by measuring the average intensity difference of NF-κB between the identified cytoplasmic region and nuclear region.

Cc1ccc(S(=O)(=O)C=CC#N)cc1 [Bay 11-7082, 3-(4-methylphenylsulfonyl)-2-propenenitrile, reference compound]
cytoplasmic-to-nuclear translocation of p65: blocked p65 translocation
